# Tests used:
# [1] = target: T1, isolated recombinant JAK1 kinase domain (Homo sapiens, UniProt P23458); test: JAK enzyme assay, JAK1 kinase domain (Caliper LabChip); assay type: biochemical; conditions: 1.5 nM JAK1, ATP 25 μM, Morrison tight binding model
# T1 construct: isolated recombinant JAK1 and JAK2 kinase domain
# Procedure: (§1) JAK Enzyme Assays were Carried Out as Follows:
# (§2) The activity of the isolated recombinant JAK1 and JAK2 kinase domain was measured by monitoring phosphorylation of a peptide derived from JAK3 (Val-Ala-Leu-Val-Asp-Gly-Tyr-Phe-Arg-Leu-Thr-Thr, fluorescently labeled on the N-terminus with 5-carboxyfluorescein) using the Caliper LabChip® technology (Caliper Life Sciences, Hopkinton, Mass.). […] Reactions were incubated at 22 °C in 384-well polypropylene microtiter plates for 30 minutes and then stopped by addition of 25 μL of an EDTA containing solution (100 mM HEPES buffer (pH 7.2), 0.015% Brij-35, 150 mM EDTA), resulting in a final EDTA concentration of 50 mM. After termination of the kinase reaction, the proportion of phosphorylated product was determined as a fraction of total peptide substrate using the Caliper LabChip® 3000 according to the manufacturer's specifications. Ki values were then determined using the Morrison tight binding model (Morrison, J. F., Biochim. Biophys. Acta. 185:269-296 (1969); William, J. W. and Morrison, J. F., Meth. Enzymol., 63:437-467 (1979)) modified for ATP-competitive inhibition [Ki=Ki,app/(1+[ATP]/Km,app)].
# [2] = target: T2, isolated recombinant JAK2 kinase domain (Homo sapiens, UniProt O60674); test: JAK enzyme assay, JAK2 kinase domain (Caliper LabChip); assay type: biochemical; conditions: 0.2 nM JAK2, ATP 25 μM, Morrison tight binding model
# T2 construct: isolated recombinant JAK1 and JAK2 kinase domain
# Procedure: as §1, §2
# [3] = test system: JAK1-dependent STAT6 phosphorylation downstream of IL-13 stimulation in BEAS-2B cells; test: JAK1 pathway assay in cell lines: IL-13 p-STAT6 BEAS-2B; assay type: cell-based; conditions: BEAS-2B human bronchial epithelial cells, 1 hr compound, IL-13 15 min, MSD readout
# Procedure: JAK1 Pathway Assay in Cell Lines was Carried Out as Follows:
# Inhibitor potency (EC50) was determined in cell-based assays designed to measure JAK1 dependent STAT phosphorylation. As noted above, inhibition of IL-4, IL-13, and IL-9 signalling by blocking the Jak/Stat signaling pathway can alleviate asthmatic symptoms in pre-clinical lung inflammation models (Mathew et al., 2001, J Exp Med 193(9): 1087-1096; Kudlacz et. al., 2008, Eur J. Pharmacol 582(1-3): 154-161).
# In one assay approach, TF-1 human erythroleukemia cells obtained from the American Type Culture Collection (ATCC; Manassas, Va.) were used to measure JAK1-dependent STAT6 phosphorylation downstream of IL-13 stimulation. Prior to use in the assays, TF-1 cells were starved of GM-CSF overnight in OptiMEM medium (Life Technologies, Grand Island, N.Y.) supplemented with 0.5% charcoal/dextran stripped fetal bovine serum (FBS), 0.1 mM non-essential amino acids (NEAA), and 1 mM sodium pyruvate. The assays were run in 384-well plates in serum-free OptiMEM medium using 300,000 cells per well. In a second assay approach, BEAS-2B human bronchial epithelial cells obtained from ATCC were plated at 100,000 cells per well of a 96-well plate one day prior to the experiment. The BEAS-2B assay was run in complete growth medium (bronchial epithelial basal medium plus bulletkit; Lonza; Basel, Switzerland).
# Test compounds were serially diluted 1:2 in DMSO and then diluted 1:50 in medium just before use. Diluted compounds were added to the cells, for a final DMSO concentration of 0.2%, and incubated for 30 mi (for the TF-1 assay) or 1 hr (for the BEAS-2B assay) at 37 QC. Then, cells were stimulated with human recombinant cytokine at their respective EC90 concentrations, as previously determined for each individual lot. Cells were stimulated with IL-13 (R&D Systems, Minneapolis, Minn.) for 15 min at 37 °C. The TF-1 cell reactions were stopped by the direct addition of 10× lysis buffer (Cell Signaling Technologies, Danvers, Mass.), whereas the BEAS-2B cell incubations were halted by the removal of medium and addition of 1× lysis buffer. The resultant samples were frozen in the plates at −80 °C. Compound mediated inhibition of STAT6 phosphorylation was measured in the cell lysates using MesoScale Discovery (MSD) technology (Gaithersburg, Md.). EC50 values were determined as the concentration of compound required for 50% inhibition of STAT phosphorylation relative to that measured for the DMSO control.
# T2 sequence (O60674 849-1124 limits assumed): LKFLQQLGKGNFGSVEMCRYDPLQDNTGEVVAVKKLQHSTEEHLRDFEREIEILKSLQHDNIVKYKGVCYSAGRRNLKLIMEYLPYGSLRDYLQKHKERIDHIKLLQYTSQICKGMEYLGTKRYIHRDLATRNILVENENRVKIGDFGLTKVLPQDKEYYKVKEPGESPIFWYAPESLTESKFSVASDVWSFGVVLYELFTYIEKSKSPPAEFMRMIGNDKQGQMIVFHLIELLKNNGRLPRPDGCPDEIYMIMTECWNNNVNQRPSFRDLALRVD
# T1 sequence (P23458 875-1153 limits assumed): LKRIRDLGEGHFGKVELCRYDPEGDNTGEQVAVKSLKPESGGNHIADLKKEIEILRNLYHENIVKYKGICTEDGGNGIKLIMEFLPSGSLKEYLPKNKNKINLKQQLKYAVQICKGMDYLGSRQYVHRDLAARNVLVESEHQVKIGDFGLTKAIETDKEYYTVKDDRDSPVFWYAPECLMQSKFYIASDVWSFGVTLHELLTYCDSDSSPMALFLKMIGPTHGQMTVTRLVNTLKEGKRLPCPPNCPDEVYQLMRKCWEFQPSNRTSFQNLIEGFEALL
Structure (SMILES),Ki [1],Ki [2],EC50 [3]
CN1CCN(C(=O)Cn2cc(Nc3nc4c(N5CC(CC#N)(c6ccc(C(F)(F)F)cc6)C5)cccn4n3)cn2)CC1 [Example 17],0.3 nM,1.2 nM,18 nM
CN1CCN(C(=O)Cn2cc(Nc3nc4c(N5CC(CC#N)(n6cccn6)C5)cccn4n3)cn2)CC1 [Example 18],0.7 nM,1.5 nM,21 nM
"CN1CCN(C(=O)Cn2cc(Nc3nc4c(N5CC(CC#N)(n6cc(F)cn6)C5)cccn4n3)cn2)CC1 [Example 19, 2-[3-(4-fluoropyrazol-1-yl)-1-[2-[[1-[2-(4-methylpiperazin-1-yl)-2-oxo-ethyl]pyrazol-4-yl]amino]-[1,2,4]triazolo[1,5-a]pyridin-8-yl]azetidin-3-yl]acetonitrile]",4.4 nM,4 nM,255 nM
"CN1CCN(C(=O)Cn2cc(Nc3nc4c(N5CC(CC#N)(n6cc(CO)cn6)C5)cccn4n3)cn2)CC1 [Example 20, 2-[3-[4-(hydroxymethyl)pyrazol-1-yl]-1-[2-[[1-[2-(4-methylpiperazin-1-yl)-2-oxo-ethyl]pyrazol-4-yl]amino]-[1,2,4]triazolo[1,5-a]pyridin-8-yl]azetidin-3-yl]acetonitrile]",1.2 nM,9.6 nM,> 1000 nM
"CN1CCN(C(=O)Cn2cc(Nc3nc4c(N5CC(CC#N)(n6cc(-c7ccccc7)cn6)C5)cccn4n3)cn2)CC1 [Example 21, formic acid;2-[1-[2-[[1-[2-(4-methylpiperazin-1-yl)-2-oxo-ethyl]pyrazol-4-yl]amino]-[1,2,4]triazolo[1,5-a]pyridin-8-yl]-3-(4-phenylpyrazol-1-yl)azetidin-3-yl]acetonitrile]",1.1 nM,7.7 nM,43 nM
CCCc1cnn(C2(CC#N)CN(c3cccn4nc(Nc5cnn(CC(=O)N6CCN(C)CC6)c5)nc34)C2)c1 [Example 22],1 nM,3 nM,36 nM
"CN1CCN(C(=O)Cn2cc(Nc3nc4c(N5CC(CC#N)(c6ccc(Cl)c(F)c6)C5)cccn4n3)cn2)CC1 [Example 23, 2-[3-(4-chloro-3-fluoro-phenyl)-1-[2-[[1-[2-(4-methylpiperazin-1-yl)-2-oxo-ethyl]pyrazol-4-yl]amino]-[1,2,4]triazolo[1,5-a]pyridin-8-yl]azetidin-3-yl]acetonitrile]",0.7 nM,6.1 nM,40 nM
"Cc1cc(Cl)ccc1C1(CC#N)CN(c2cccn3nc(Nc4cnn(CC(=O)N5CCN(C)CC5)c4)nc23)C1 [Example 24, 2-[3-(4-chloro-2-methyl-phenyl)-1-[2-[[1-[2-(4-methylpiperazin-1-yl)-2-oxo-ethyl]pyrazol-4-yl]amino]-[1,2,4]triazolo[1,5-a]pyridin-8-yl]azetidin-3-yl]acetonitrile]",0.4 nM,2.3 nM,87 nM
"CN1CCN(C(=O)Cn2cc(Nc3nc4c(N5CC(CC#N)(n6cc(CCO)cn6)C5)cccn4n3)cn2)CC1 [Example 25, 2-[3-[4-(2-hydroxyethyl)pyrazol-1-yl]-1-[2-[[1-[2-(4-methylpiperazin-1-yl)-2-oxo-ethyl]pyrazol-4-yl]amino]-[1,2,4]triazolo[1,5-a]pyridin-8-yl]azetidin-3-yl]acetonitrile]",0.4 nM,2.3 nM,137 nM
"CN1CCN(C(=O)Cn2cc(Nc3nc4c(N5CC(CC#N)(Cc6ccccc6)C5)cccn4n3)cn2)CC1 [Example 26, 2-[3-benzyl-1-[2-[[1-[2-(4-methylpiperazin-1-yl)-2-oxo-ethyl]pyrazol-4-yl]amino]-[1,2,4]triazolo[1,5-a]pyridin-8-yl]azetidin-3-yl]acetonitrile]",0.4 nM,2.1 nM,42 nM
"Cc1cc(C2(CC#N)CN(c3cccn4nc(Nc5cnn(CC(=O)N6CCN(C)CC6)c5)nc34)C2)ccc1Cl [Example 27, 2-[3-(4-chloro-3-methyl-phenyl)-1-[2-[[1-[2-(4-methylpiperazin-1-yl)-2-oxo-ethyl]pyrazol-4-yl]amino]-[1,2,4]triazolo[1,5-a]pyridin-8-yl]azetidin-3-yl]acetonitrile]",0.5 nM,1.8 nM,51 nM
"COc1cnn(C2(CC#N)CN(c3cccn4nc(Nc5cnn(CC(=O)N6CCN(C)CC6)c5)nc34)C2)c1 [Example 28, 2-[3-(4-methoxypyrazol-1-yl)-1-[2-[[1-[2-(4-methylpiperazin-1-yl)-2-oxo-ethyl]pyrazol-4-yl]amino]-[1,2,4]triazolo[1,5-a]pyridin-8-yl]azetidin-3-yl]acetonitrile]",0.4 nM,1.4 nM,54 nM
"CCc1cnn(C2(CC#N)CN(c3cccn4nc(Nc5cnn(CC(=O)N6CCC(N7CCOCC7)CC6)c5)nc34)C2)c1 [Example 29, 2-[3-(4-ethylpyrazol-1-yl)-1-[2-[[1-[2-(4-morpholino-1-piperidyl)-2-oxo-ethyl]pyrazol-4-yl]amino]-[1,2,4]triazolo[1,5-a]pyridin-8-yl]azetidin-3-yl]acetonitrile]",0.6 nM,2.1 nM,78 nM
"CCc1cnn(C2(CC#N)CN(c3cccn4nc(Nc5cnn(CC(=O)N6CCC(NCC(C)(F)F)CC6)c5)nc34)C2)c1 [Example 30, 2-[1-[2-[[1-[2-[4-(2,2-difluoropropylamino)-1-piperidyl]-2-oxo-ethyl]pyrazol-4-yl]amino]-[1,2,4]triazolo[1,5-a]pyridin-8-yl]-3-(4-ethylpyrazol-1-yl)azetidin-3-yl]acetonitrile]",0.7 nM,2.7 nM,104 nM
"CCc1cnn(C2(CC#N)CN(c3cccn4nc(Nc5cnn(CC(=O)N6CCN(C7CCOCC7)CC6)c5)nc34)C2)c1 [Example 31, 2-[3-(4-ethylpyrazol-1-yl)-1-[2-[[1-[2-oxo-2-(4-tetrahydropyran-4-ylpiperazin-1-yl)ethyl]pyrazol-4-yl]amino]-[1,2,4]triazolo[1,5-a]pyridin-8-yl]azetidin-3-yl]acetonitrile]",0.4 nM,1.1 nM,19 nM
"CCc1cnn(C2(CC#N)CN(c3cccn4nc(Nc5cnn(CC(=O)N6CCN(C7COC7)CC6)c5)nc34)C2)c1 [Example 32, 2-[3-(4-ethylpyrazol-1-yl)-1-[2-[[1-[2-[4-(oxetan-3-yl)piperazin-1-yl]-2-oxo-ethyl]pyrazol-4-yl]amino]-[1,2,4]triazolo[1,5-a]pyridin-8-yl]azetidin-3-yl]acetonitrile;formic acid]",0.4 nM,0.2 nM,19 nM
"CCc1cnn(C2(CC#N)CN(c3cccn4nc(Nc5cnn(CC(=O)N6CCC(NCC(C)(C)C#N)CC6)c5)nc34)C2)c1 [Example 33, 3-[[1-[2-[4-[[8-[3-(cyanomethyl)-3-(4-ethylpyrazol-1-yl)azetidin-1-yl]-[1,2,4]triazolo[1,5-a]pyridin-2-yl]amino]pyrazol-1-yl]acetyl]-4-piperidyl]amino]-2,2-dimethyl-propanenitrile]",0.3 nM,0.2 nM,18 nM

# Source: patent publication US20230242530A1, “8-(AZETIDIN-1-YL)-[1,2,4]TRIAZOLO[1,5-A]PYRIDINYL COMPOUNDS, COMPOSITIONS AND METHODS OF USE THEREOF” (Genentech, Inc., priority 2016, published 2023)
